The structures appear in SMILES notation. Where two headings read alike, the source gives them in different places. Some results are limits rather than exact numbers.

This is an account of results in patent US5061794A, “Cephalosporin derivatives, and antibacterial agents” (priority 1986, dated 1991).

One assay relates to Ps. cepacia 23. The experiment in a line: in vitro antibacterial activity, agar plate dilution method (MIC). The assay is classed as cell-based, Pseudomonas cepacia. As to conditions: Burkholderia cepacia, 23, 16 h, read-out: Minimum Inhibitory Concentration (MIC). The method, boiled down:
(§1)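 MIC values (μg/ml) come from Mueller Hinton agar dilution plates inoculated with overnight-grown bacteria at 10^6 CFU/ml and kept at 37° C. for 16 hours.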

The subject of the next assay is A. calcoaceticus No. 4. Described as above. Format: cell-based, Acinetobacter calcoaceticus. The settings on record: Acinetobacter calcoaceticus, NO.4, 16 h, 10^6 CFU/ml. The method, boiled down: as §1
A further assay relates to E. coli NIHJ JC2. The assay is described as above. Format: cell-based. The settings on record: Escherichia coli, NIHJJC2, 16 h, read-out: Minimum Inhibitory Concentration (MIC), E. coli NIHJ JC2, 10^6 CFU/ml, 37° C. The method, boiled down: as §1
In another assay the test system is E. cloacae Nek 39. The description is as above. The assay is classed as cell-based. As to conditions: Enterobacter cloacae, NEK39, 16 h, 10^6 CFU/ml. In short, it runs like this: as §1
A further assay deals with M. morganii GN5407. The description is as above. Format: cell-based. The settings on record: Morganella morganii, GN5407, 16 h, read-out: Minimum Inhibitory Concentration (MIC), *M. morganii GN5407, lactamase-producing strain; 10^6 CFU/ml. The method, boiled down:
as §1

A further assay deals with K. pneumoniae PCI-602. The assay is described as above. The settings on record: Klebsiella pneumoniae, PCI602, 16 h, 10^6 CFU/ml. The assay is classed as cell-based. In short, it runs like this: as §1
A further assay deals with S. aureus 209P NIHJ-JC1. The assay is described as above. Format: cell-based. The settings on record: Staphylococcus aureus, 16 h. The method, boiled down:
as §1

A further assay concerns E. cloacae 963. Described as above. The assay is classed as cell-based. The settings on record: Enterobacter cloacae, 963, 16 h, read-out: Minimum Inhibitory Concentration (MIC), E. cloacae 963; 10^6 CFU/ml. The method, boiled down: as §1
The next assay concerns S. marcescens IAM 1184. The assay is described as above. Format: cell-based. The settings on record: Serratia marcescens, IAM1184, 16 h, read-out: Minimum Inhibitory Concentration (MIC). The method, boiled down: as §1
The next assay has as its system K. pneumoniae No. 42. The assay is described as above. Format: cell-based. The settings on record: Klebsiella pneumoniae, NO.42, 16 h, read-out: Minimum Inhibitory Concentration (MIC), *K. pneumoniae No. 42, lactamase-producing strain; 10^6 CFU/ml. The method, boiled down: as §1
In another assay the test system is K. oxytoca GN10650. The assay is described as above. Format: cell-based. As to conditions: Klebsiella oxytoca, 10^6 CFU/ml. In short, it runs like this:
as §1

Another assay relates to S. marcescens No. 16-2. The description is as above. Format: cell-based. The settings on record: Serratia marcescens, NO.162, 16 h, 10^6 CFU/ml. The method, boiled down:
as §1

For another assay, the system named is E. coli GN5482. The assay is described as above. As to conditions: Escherichia coli, GN5482, 16 h. Format: cell-based. The method, boiled down: as §1
A further assay concerns P. vulgaris HX-19. Described as above. The settings on record: Proteus vulgaris, HX19, 16 h, P. vulgaris HX-19; 10^6 CFU/ml; read-out: Minimum Inhibitory Concentration (MIC). The assay is classed as cell-based. The method, boiled down: as §1
The test system of another assay is P. vulgaris No. 33. Described as above. The assay is classed as cell-based. As to conditions: Proteus vulgaris, NO.33, 16 h, read-out: Minimum Inhibitory Concentration (MIC), *P. vulgaris No. 33, lactamase-producing strain; 10^6 CFU/ml. In short, it runs like this: as §1
A further assay has as its system E. coli CSH2 (RK1). In words: microbe, parasite or virus in culture. The assay is classed as cell-based. As to conditions: Escherichia coli, 16 h, read-out: Minimum Inhibitory Concentration (MIC), *E. coli CSH2 (RK1), lactamase-producing strain; 10^6 CFU/ml. In short, it runs like this: as §1
In a further assay the test system is E. coli CSH(RE45). The experiment in a line: microbe, parasite or virus in culture. As to conditions: Escherichia coli, 16 h, read-out: Minimum Inhibitory Concentration (MIC), *E. coli CSH(RE45), lactamase-producing strain; 10^6 CFU/ml. The assay is classed as cell-based. In short, it runs like this:
as §1

The next assay concerns Ps. aeruginosa IF03445. The experiment in a line: in vitro antibacterial activity, agar plate dilution method (MIC). The assay is classed as cell-based, Pseudomonas aeruginosa. As to conditions: Pseudomonas aeruginosa, 16 h; Ps. aeruginosa IF03445; 10^6 CFU/ml; read-out: Minimum Inhibitory Concentration (MIC). The method, boiled down:
as §1

In a further assay the test system is Ps. aeruginosa AKR17. The description is as above. Format: cell-based, Pseudomonas aeruginosa. The settings on record: Pseudomonas aeruginosa, 16 h; Ps. aeruginosa AKR17; 10^6 CFU/ml; read-out: Minimum Inhibitory Concentration (MIC). In short, it runs like this:
as §1

Another assay relates to Ps. aeruginosa AK 109. The description is as above. The assay is classed as cell-based, Pseudomonas aeruginosa. As to conditions: Pseudomonas aeruginosa, AK109, 16 h, Ps. aeruginosa AK 109; 10^6 CFU/ml; read-out: Minimum Inhibitory Concentration (MIC). The method, boiled down: as §1
Where [1] appears, read: read-out: Minimum Inhibitory Concentration (MIC), *E. cloacae Nek 39, lactamase-producing strain.
Where [2] appears, read: K. pneumoniae PCI-602, read-out: Minimum Inhibitory Concentration (MIC).
Setting [3] is: read-out: Minimum Inhibitory Concentration (MIC).
Where [4] appears, read: GN10650, 16 h, read-out: Minimum Inhibitory Concentration (MIC), *K. oxytoca GN10650, lactamase-producing strain.
Setting [5] is: read-out: Minimum Inhibitory Concentration (MIC), *E. coli GN5482, lactamase-producing strain, 10^6 CFU/ml.
Where [6] appears, read: A. calcoaceticus No. 4, read-out: Minimum Inhibitory Concentration (MIC).
Setting [7] is: *E. cloacae Nek 39, lactamase-producing strain, read-out: Minimum Inhibitory Concentration (MIC).
[8] abbreviates: read-out: Minimum Inhibitory Concentration (MIC), S. aureus 209P NIHJ-JC1, 10^6 CFU/ml, 37° C., 16 hours.
The mark [9] stands for this setting: *S. marcescens No. 16-2, lactamase-producing strain, read-out: Minimum Inhibitory Concentration (MIC).

Regarding `CO/N=C(\C(=O)N[C@@H]1C(=O)N2C(C(=O)O)=C(CSc3ncc(-c4ccccc4)o3)CS[C@H]12)c1csc(N)n1` [compound 21, sodium 7β-[2-(2-aminothiazol-4-yl)-2methoxyiminoacetamido]-3-(5-phenyloxazol-2-yl)thiomethyl-3-cephem-4-carboxylate, reference compound], the MIC is 0.78 µg/mL in the assay with Ps. cepacia 23; 12.5 µg/mL in the assay on A. calcoaceticus No. 4 (read-out: Minimum Inhibitory Concentration (MIC), A. calcoaceticus No. 4); 1.56 µg/mL in the assay on E. coli NIHJ JC2; 6.25 µg/mL with E. cloacae Nek 39 (setting [1]); 1.56 µg/mL in the assay with M. morganii GN5407; 0.0125 µg/mL with K. pneumoniae PCI-602 (setting [2]). Moreover, the MIC with S. aureus 209P NIHJ-JC1 (setting [3]) worked out at 0.39 µg/mL; in the assay with E. cloacae 963 it was 3.12 µg/mL; with S. marcescens IAM 1184, 0.78 µg/mL; in the assay with K. pneumoniae No. 42, 3.12 µg/mL; with K. oxytoca GN10650 (setting [4]), 12.5 µg/mL; with S. marcescens No. 16-2 (read-out: Minimum Inhibitory Concentration (MIC), *S. marcescens No. 16-2, lactamase-producing strain), 6.25 µg/mL. Moreover, the MIC came to 0.78 µg/mL in the assay on E. coli GN5482 (setting [5]); 0.0125 µg/mL with P. vulgaris HX-19; 0.78 µg/mL in the assay with P. vulgaris No. 33; 0.78 µg/mL in the assay on E. coli CSH2 (RK1); 1.56 µg/mL in the assay on E. coli CSH(RE45); 50 µg/mL in the assay on Ps. aeruginosa IF03445. Moreover, the MIC with Ps. aeruginosa AKR17 is > 100 µg/mL; in the assay on Ps. aeruginosa AK 109 it was 50 µg/mL.
Turning to `CC(C)(O/N=C(\C(=O)N[C@@H]1C(=O)N2C(C(=O)O)=C(CSc3ncc(-c4ccccc4)o3)CS[C@H]12)c1csc(N)n1)C(=O)O` [compound 22, disodium 7β-[2-(2-aminothiazol-4-yl)-2-(1-carboxylate-1-methylethoxyimino)acetamido]-3(5-phenyloxazol-2-yl)thiomethyl-3-cephem-4-carboxylate, reference compound], the MIC with Ps. cepacia 23 was 12.5 µg/mL; in the assay on A. calcoaceticus No. 4 (setting [6]) it was > 100 µg/mL; in the assay with E. coli NIHJ JC2, 12.5 µg/mL; with E. cloacae Nek 39 (setting [7]), 25 µg/mL; in the assay on M. morganii GN5407, 6.25 µg/mL; in the assay with K. pneumoniae PCI-602 (read-out: Minimum Inhibitory Concentration (MIC), K. pneumoniae PCI-602), 0.1 µg/mL. Besides, the MIC with S. aureus 209P NIHJ-JC1 (setting [8]) stood at 6.25 µg/mL; in the assay on E. cloacae 963, 12.5 µg/mL; with S. marcescens IAM 1184, 3.12 µg/mL; in the assay with K. pneumoniae No. 42, 12.5 µg/mL; in the assay with K. oxytoca GN10650 (setting [4]), 6.25 µg/mL; in the assay on S. marcescens No. 16-2 (setting [9]) it was 25 µg/mL. The MIC in the assay with E. coli GN5482 (setting [3]) was 3.12 µg/mL; in the assay with P. vulgaris HX-19, < 0.006 µg/mL; in the assay with P. vulgaris No. 33, 0.78 µg/mL; with E. coli CSH2 (RK1), 3.12 µg/mL; in the assay on E. coli CSH(RE45) it was 3.12 µg/mL; in the assay on Ps. aeruginosa IF03445, 50 µg/mL. In addition, the MIC in the assay on Ps. aeruginosa AKR17 was > 100 µg/mL; in the assay on Ps. aeruginosa AK 109, 50 µg/mL.
Take `CO/N=C(\C(=O)N[C@@H]1C(=O)N2C(C(=O)O)=C(CSc3ncc(-c4ccc(O)cc4)o3)CS[C@H]12)c1csc(N)n1` [compound 23, sodium 7β-[2-(2-aminothiazol-4-yl)-2-methoxyiminoacetamido]-3-[5-(4-hydroxyphenyl)-oxazol-2-yl]thiomethyl-3-cephem-4-carboxylate, reference compound]: the MIC with Ps. cepacia 23 was 3.12 µg/mL; with A. calcoaceticus No. 4 (setting [6]) it was 50 µg/mL; with E. coli NIHJ JC2, 1.56 µg/mL; with E. cloacae Nek 39 (setting [1]), 6.25 µg/mL; in the assay on M. morganii GN5407, 1.56 µg/mL; in the assay with K. pneumoniae PCI-602 (setting [2]) it was 0.0125 µg/mL. Also, the MIC came to 0.2 µg/mL in the assay with S. aureus 209P NIHJ-JC1 (S. aureus 209P NIHJ-JC1, 10^6 CFU/ml, 37° C., 16 hours, read-out: Minimum Inhibitory Concentration (MIC)); 3.12 µg/mL in the assay on E. cloacae 963; 0.78 µg/mL with S. marcescens IAM 1184; 3.12 µg/mL with K. pneumoniae No. 42; 25 µg/mL in the assay with K. oxytoca GN10650 (16 h, *K. oxytoca GN10650, lactamase-producing strain, read-out: Minimum Inhibitory Concentration (MIC)); 25 µg/mL in the assay with S. marcescens No. 16-2 (setting [9]). Further, the MIC is 0.78 µg/mL in the assay on E. coli GN5482 (setting [5]); < 0.006 µg/mL in the assay with P. vulgaris HX-19; 0.78 µg/mL in the assay on P. vulgaris No. 33; 0.78 µg/mL in the assay with E. coli CSH2 (RK1); 0.78 µg/mL in the assay with E. coli CSH(RE45); 50 µg/mL in the assay on Ps. aeruginosa IF03445. The values for the MIC in the assay on Ps. aeruginosa AKR17 and with Ps. aeruginosa AK 109 were > 100 µg/mL and 50 µg/mL, respectively.
Regarding `CC(C)(O/N=C(\C(=O)N[C@@H]1C(=O)N2C(C(=O)O)=C(CSc3ncc(-c4ccc(O)cc4)o3)CS[C@H]12)c1csc(N)n1)C(=O)O` [compound 24, disodium 7β-[2-(2-aminothiazol-4-yl)-2-(1-carboxylate-1-methylethoxyimino)acetamido]-3-[5-(4-hydroxyphenyl)oxazol-2-yl]thiomethyl-3-cephem-4-carboxylate, reference compound], the MIC in the assay with Ps. cepacia 23 is 6.25 µg/mL; in the assay with A. calcoaceticus No. 4 (setting [6]), > 100 µg/mL; with E. coli NIHJ JC2 it was 12.5 µg/mL; with E. cloacae Nek 39 (setting [7]), 25 µg/mL; in the assay on M. morganii GN5407, 6.25 µg/mL; with K. pneumoniae PCI-602 (setting [2]), 0.2 µg/mL. Besides, the MIC in the assay with S. aureus 209P NIHJ-JC1 (setting [8]) was determined as 6.25 µg/mL; in the assay with E. cloacae 963, 12.5 µg/mL; with S. marcescens IAM 1184, 3.12 µg/mL; in the assay with K. pneumoniae No. 42, 12.5 µg/mL; in the assay with K. oxytoca GN10650 (setting [4]), 6.25 µg/mL; in the assay with S. marcescens No. 16-2 (setting [9]) it was 25 µg/mL. Moreover, the MIC was 3.12 µg/mL in the assay with E. coli GN5482 (setting [3]); < 0.006 µg/mL with P. vulgaris HX-19; 0.39 µg/mL in the assay with P. vulgaris No. 33; 3.12 µg/mL in the assay with E. coli CSH2 (RK1); 3.12 µg/mL with E. coli CSH(RE45); 25 µg/mL in the assay on Ps. aeruginosa IF03445. For the same compound, the MIC in the assay on Ps. aeruginosa AKR17 was > 100 µg/mL; in the assay on Ps. aeruginosa AK 109, 25 µg/mL.
